Measurements taken from patent EP0409236A1, “Optically active naphthylethanol derivative” (Eisai Co., Ltd., priority 1989, dated 1991).
Where “and” joins values, the source holds several entries; their conditions need not be identical. Equal values may be shown once. Where a name gives a salt, the structure may show the parent alone.

How the values were obtained:
male ddy mice = assay: Effect on KCN-induced mortality in mice; conditions: mouse, in vivo; hydrochloride
[1] = tested on: pyramidal cells in the CA1 region of the gerbil hippocampus; assay: Effect on ischemia-induced neuronal damage in the gerbil hippocampus; assay type: in vivo; conditions: i.p., one hour before 5-min ischemia, normal pyramidal cells in 0.105 x 1.175 mm² of CA1, one week later
Description: Effect on ischemia-induced neuronal damage in the gerbil hippo- campus
Kirino reported that a brief cerebral ischemia caused the destruction of the pyramidal cells in the CA1 region of the gerbil hippocampus [Brain Res. 239: 57-69 (1982)]. Effect of the compound(B) on this ischemia-induced neuronal damage was examined.
The compounds were intraperitoneally administered to each animal and one hour later 5-min ischemia was produced by clamping both common carotid arteries. One week after the 5-min ischemia gerbils were fixed by transcardiac perfusion of fixative which consisted of 4% formaldehyde in phosphate buffer (pH 7.4). The fixed brain was embedded in paraffin and semi-thin (3 µm) sections were cut at a level of the dorsal hippocampus. The sections were stained with feulgen for cell counting by an image-analyzing computer. Normal pyramidal cells in the area of 0.105 x 1.175 mm² were counted.

Molecule | Survival time (sec) mean ± SEM (male ddy mice) | neuronal density mean ± SEM ([1]; 3 mg/kg) | neuronal density mean ± SEM ([1]; 10 mg/kg) | neuronal density mean ± SEM ([1]; 30 mg/kg) | neuronal density mean ± SEM ([1]; 1 mg/kg)
(R)-(-)-2-[4-(p-Fluorobenzoyl)-1-piperidylj-1-naphthylethanol hydrochloride [ℓ-isomer of compound (B)] | 40.2 ± 1.8 s and 43.0 ± 1.8 s and 44.8 ± 1.9 s | 1.9 ± 0.5 | 17.2 ± 5.2 | 12.0 ± 3.4 | 
O=C(c1ccc(F)cc1)C1CCN(C[C@@H](O)c2ccc3ccccc3c2)CC1 [d-isomer of compound (B), hydrochloride] | 52.4 ± 2.4 s and 50.1 ± 1.6 s and 62.5 ± 4.4 s | 16.5 ± 4.0 | 34.6 ± 1.1 |  | 9.3 ± 4.6
